# Assays:
# [1] = Antiviral activity against HIV in human peripheral blood mononuclear cells (PBMC); type: functional
# [2] = test system: HepG2; assay: Concentration required to inhibit 50% of 2.2.15 cell line; type: functional, cell-based; settings: Homo sapiens
# [3] = Concentration required to inhibit 50% of human peripheral blood mononuclear cells; type: functional
# [4] = test system: CCRF-CEM; assay: Antiviral activity against HIV in CEM cell line; type: functional, cell-based; settings: Homo sapiens
# [5] = test system: CCRF-CEM; assay: Concentration required to inhibit 50% of CEM cell lines; type: functional, cell-based; settings: Homo sapiens
# [6] = test system: HepG2; assay: Antiviral activity against Hepatitis B virus in 2.2.15 cell line; type: functional, cell-based; settings: Homo sapiens
EC50 [1],IC50 [2],IC50 [3],EC50 [4],IC50 [5],EC50 [6],Compound
14.1 µM,50 µM,> 100 µM,18.1 µM,> 10 µM,> 10 µM,Nc1nc(O)c2ncn([C@@H]3C=C[C@H](CO)O3)c2n1
5.5 µM,50 µM,60 µM,–,–,> 10 µM,OC[C@H]1C=C[C@@H](n2cnc3c(O)ncnc32)O1
8.2 µM,> 200 µM,> 100 µM,–,–,6 µM,"Nc1ncnc2c1ncn2[C@H]1CC[C@@H](CO)O1 (single isomer, unassigned)"
0.38 µM,70 µM,59 µM,0.54 µM,37 µM,1.2 µM,"Nc1ncnc2c1ncn2[C@H]1C=C[C@@H](CO)O1 (single isomer, unassigned)"
> 100 µM,200 µM,> 100 µM,> 100 µM,> 100 µM,> 10 µM,"Nc1nc(O)c2ncn([C@H]3CC[C@@H](CO)O3)c2n1 (single isomer, unassigned)"
> 100 µM,> 200 µM,> 100 µM,–,–,> 10 µM,"O=c1[nH]cnc2c1ncn2[C@H]1CC[C@@H](CO)O1 (single isomer, unassigned) [DIDANOSINE]"
